This note sets out measurements from patent US6407104B1, “Pyrrolo[1,2-a]pyrazine spla2 inhibitor” (Shionogi & Co., Ltd., priority 1998, dated 2002).

The target in series [1] is T1, recombinant human secretory phospholipase A2 (Homo sapiens, UniProt P14555).
T1 sequence (P14555 21-144): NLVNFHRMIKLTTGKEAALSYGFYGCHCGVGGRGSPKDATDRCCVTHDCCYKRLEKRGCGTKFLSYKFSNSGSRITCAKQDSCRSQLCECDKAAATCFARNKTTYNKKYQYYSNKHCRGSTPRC
The experiment in a line: Inhibition Test of Human Secretory Phospholipase A2 (chromogenic assay). In kind it is biochemical. As to conditions: sPLA2 50 ng/well, 40° C., 30 minutes, OD 405 nm, 96 well microtiterplate. The text has this: Test Example: Inhibition Test of Human Secretory Phospholipase A2
In order to identify and evaluate an inhibitor of recombinant human secretory phospholipase A2, the following chromogenic assay is utilized. The assay herein has been applied for high volume screening wherein 96 well microtiterplate is used. A general explanation for such assay is described in “Analysis of Human Synovial Fluid Phospholipase A2 on Short Chain Phosphatidylcholine-Mixed Micelles: Development of a Spectrophotometric Assay Suitable for a Micortiterplate Reader” (Analytical Biochemistry, 204, pp 190-197, 1992 by Laure. J. Reynolds. Lori L. Hughes and Edward A. Dennis: the disclosure of which is incorporated herein for reference.
pH 7.5 (adjusted with NaOH)
pH 4.5 (adjusted with acetic acid)
1 mg of sPLA2 is dissolved in 1 ml of an enzyme buffer. Thereafter, the solution is maintained at 4° C.
In the assay, 5 μl of the solution is diluted with 1995 μl of the reaction buffer to be used.
198 mg of 5,5′-dithiobis-2-[…] (manufactured by Wako Pure Chemicals) is dissolved in 100 ml of H2O
H 7.5 (adjusted with NaOH)
100 mg of racemic 1,2-bis(heptanoylthio)-1,2-dideoxy-sn-glycero-3-phospholylcholine is dissolved in 1 ml of chloroform.
624.9 mg of Triton-X 100 is dissolved in the reaction buffer.
Enzyme Reaction: for 1 Plate of Microtiterplate
1) 0.106 ml of the substrate solution is put in a centrifugal tube, and nitrogen gas is jetted to remove the solvent. 0.54 ml of Triton-X 100 is added thereto, the mixture is stirred, thereafter it is sonified in a bath type sonification to dissolve. To the resulting product are added 17.8 ml of the reaction buffer and 0.46 ml of DTNB, and 0.18 ml each of the admixture is poured to wells of the 96 well microtiterplate.
2) 10 μl of a test compound (or solvent blank) are added in accordance with alignment of plates which has been previously set.
3) Incubation is effected at 40° C. for 15 minutes.
4) 20μl of an enzyme solution (sPLA2) which has been previously diluted (50 ng/well) are added to start reaction (40° C., 30 minutes).
5) Changes in absorbancy for 30 minutes are measured by a plate reader, and inhibition activity was calculated (OD: 405 nm).
6) IC50 was determined by plotting log concentration with respect to inhibition values within 10% to 90% inhibiting range.

As for `CCc1c(C(=O)C(N)=O)c2c(OCC(=O)O)nc(C3CCCCC3)cn2c1Cc1ccccc1-c1ccccc1` [Compound I-82], the melting point is 200 to 201.5 °C. Also, the 50% inhibitory concentration (IC50) in series [1] worked out at 5 nM.
The matching figures for `COC(=O)COc1nc(C)cn2c(Cc3ccccc3)c(C)c(C(=O)C(N)=O)c12` [Compound I-83]: 205 to 207 °C and 116 nM.
`Cc1cn2c(Cc3ccccc3)c(C)c(C(=O)C(N)=O)c2c(OCC(=O)O)n1` [Compound I-84] registered a melting point of 199.5 to 201 °C. In addition, the IC50 in series [1] was 8 nM.
For `CCc1c(C(=O)C(N)=O)c2c(OCC(=O)OC)nc(C)cn2c1Cc1ccc(C)s1` [Compound I-85] the same measures were 203 to 204 °C and 370 nM.
For `CCc1c(C(=O)C(N)=O)c2c(OCC(=O)O)nc(C)cn2c1Cc1ccc(C)s1` [Compound I-86] the same measures were 216.5 to 218 °C and 11 nM.
Consider `CCc1c(C(=O)C(N)=O)c2c(OCC(=O)OC)nc(C)cn2c1Cc1csc2ccccc12` [Compound I-87], for which the melting point lay in the range of 186 to 187 °C. Moreover, the 50% inhibitory concentration (IC50) in series [1] came out at 129 nM.
Turning to `CCc1c(C(=O)C(N)=O)c2c(OCC(=O)O)nc(C)cn2c1Cc1csc2ccccc12` [Compound I-88], the melting point was in the range of 211 to 213 °C. Also, in series [1], the IC50 amounted to 8 nM.
With `CCOC(=O)COc1nc(C)cn2c(Cc3ccc(F)cc3)c(CC)c(C(=O)C(N)=O)c12` [Compound I-89], the melting point was 184 to 186 °C. The half-maximal inhibitory concentration (IC50) in series [1] worked out at 315 nM.
For `CCOC(=O)COc1nc(C)cn2c(Cc3ccccc3-c3ccc(F)cc3)c(CC)c(C(=O)C(N)=O)c12` [Compound I-90] the same measures were 172 to 173 °C and 38 nM.
`CCOC(=O)COc1nc(C)cn2c(Cc3ccccc3-c3cccs3)c(CC)c(C(=O)C(N)=O)c12` [Compound I-91] yielded a melting point of 160 to 161 °C. The IC50 in series [1] was 48 nM.
The matching figures for `CCOC(=O)COc1nc(C)cn2c(Cc3ccccc3-c3ccsc3)c(CC)c(C(=O)C(N)=O)c12` [Compound I-92]: 185 to 186 °C and 76 nM.
For `CCCOC(=O)COc1nc(C)cn2c(Cc3ccc(F)cc3)c(CC)c(C(=O)C(N)=O)c12` [Compound I-93] the same measures were 182 to 183 °C and 282 nM.
Turning to `CCCCCOC(=O)COc1nc(C)cn2c(Cc3ccc(F)cc3)c(CC)c(C(=O)C(N)=O)c12` [Compound I-94], the melting point lay in the range of 175 to 176 °C. In series [1], the concentration for half-maximal inhibition (IC50) was 650 nM.
As to `CCc1c(C(=O)C(N)=O)c2c(OCC(=O)OCCN3CCOCC3)nc(C)cn2c1Cc1ccc(F)cc1` [Compound I-95], the melting point was in the range of 139 to 140 °C. Also, the IC50 in series [1] worked out at 175 nM.
